Source: ChEMBL document CHEMBL1201862, “PubChem BioAssay data set” (2004)
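Results reflect a 48-hour exposure of cells in 96-well plates to compound at five concentrations. The concentration for 50% growth inhibition is given as GI50.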 Active and inactive are the calls of the source. No stated cut-off is given here; in the data, active = GI50 up to about 1.1 µM and inactive = higher.

Tests used:
Assay in all cases: NCI-60 cell line screen, 48 h
RPMI-8226 = test system: RPMI-8226
SK-MEL-2 = test system: SK-MEL-2
SW-620 = test system: SW-620
HOP-62 = test system: HOP-62
NCI-H23 = test system: NCI-H23
KM12 = test system: KM12
RXF 393 = test system: RXF 393
ACHN = test system: ACHN
OVCAR-3 = test system: OVCAR-3
HCT-116 = test system: HCT-116
A549 = test system: A549
UACC-257 = test system: UACC-257
OVCAR-5 = test system: OVCAR-5
HOP-92 = test system: HOP-92
SF-268 = test system: SF-268
SF-539 = test system: SF-539
MOLT-4 = test system: MOLT-4

With CC1(C)CC(=O)C(=[N+]=[N-])C(=O)C1 the GI50 (RPMI-8226) was > 100 µM (inactive), the GI50 (SK-MEL-2) was > 100 µM (inactive) and the GI50 (SW-620) was > 100 µM (inactive). For the same compound, the GI50 (HOP-62) was > 100 µM (inactive), the GI50 (NCI-H23) was > 100 µM (inactive) and the GI50 (KM12) was > 100 µM (inactive). For the same compound, the GI50 (RXF 393) was > 100 µM (inactive), the GI50 (ACHN) was > 100 µM (inactive) and the GI50 (OVCAR-3) was > 100 µM (inactive). For the same compound, the GI50 (HCT-116) was > 100 µM (inactive), the GI50 (A549) was > 100 µM (inactive) and the GI50 (UACC-257) was > 100 µM (inactive). For the same compound, the GI50 (OVCAR-5) was > 100 µM (inactive), the GI50 (HOP-92) was > 100 µM (inactive) and the GI50 (SF-268) was > 100 µM (inactive). The GI50 (SF-539) was > 100 µM (inactive).
For COc1ccc(/C=c2/sc3n(c2=O)NC2(CCCCC2)NN=3)cc1, the GI50 (SK-MEL-2) was > 100 µM (inactive), the GI50 (SW-620) was > 100 µM (inactive) and the GI50 (NCI-H23) was > 100 µM (inactive). The GI50 (KM12) was > 100 µM (inactive), the GI50 (RXF 393) was > 100 µM (inactive) and the GI50 (OVCAR-3) was > 100 µM (inactive). The GI50 (HCT-116) was > 100 µM (inactive), the GI50 (A549) was > 100 µM (inactive) and the GI50 (MOLT-4) was > 100 µM (inactive). The GI50 (OVCAR-5) was > 100 µM (inactive), the GI50 (HOP-92) was > 100 µM (inactive) and the GI50 (SF-268) was > 100 µM (inactive). The GI50 (SF-539) was > 100 µM (inactive).
With COC(=O)C1=CC2OC1(C)C1(CC1)C2=O (stereo not given) the GI50 (RPMI-8226) was 6.85 µM (inactive), the GI50 (SK-MEL-2) was > 10 µM (inactive) and the GI50 (SW-620) was 14.7 µM (inactive). For the same compound, the GI50 (HOP-62) was > 100 µM (inactive), the GI50 (NCI-H23) was 22 µM (inactive) and the GI50 (KM12) was 20.6 µM (inactive). For the same compound, the GI50 (RXF 393) was 15.5 µM (inactive), the GI50 (ACHN) was 15.3 µM (inactive) and the GI50 (OVCAR-3) was 16.2 µM (inactive). The GI50 (HCT-116) was 13.8 µM (inactive), the GI50 (A549) was 24.3 µM (inactive) and the GI50 (MOLT-4) was 6.92 µM (inactive). For the same compound, the GI50 (UACC-257) was 16.1 µM (inactive), the GI50 (OVCAR-5) was 23.8 µM (inactive) and the GI50 (SF-268) was 20.3 µM (inactive). The GI50 (SF-539) was 17.6 µM (inactive).
For COC1(OC)CCCCC2c3cccc(OC(C)=O)c3C21OC(C)=O (stereo not given), the GI50 (RPMI-8226) was 54 µM (inactive), the GI50 (SK-MEL-2) was > 100 µM (inactive) and the GI50 (SW-620) was > 100 µM (inactive). The GI50 (HOP-62) was > 100 µM (inactive), the GI50 (NCI-H23) was > 100 µM (inactive) and the GI50 (KM12) was > 100 µM (inactive). For the same compound, the GI50 (ACHN) was 78.9 µM (inactive), the GI50 (OVCAR-3) was 94 µM (inactive) and the GI50 (HCT-116) was 57.9 µM (inactive). For the same compound, the GI50 (A549) was > 100 µM (inactive), the GI50 (MOLT-4) was 64.3 µM (inactive) and the GI50 (UACC-257) was > 100 µM (inactive). The GI50 (OVCAR-5) was > 100 µM (inactive), the GI50 (SF-268) was > 100 µM (inactive) and the GI50 (SF-539) was > 100 µM (inactive).
For O=C(CCC(=O)C1Cc2ccccc2C1=O)Nc1cccc(C(F)(F)F)c1 (stereo not given), the GI50 (SK-MEL-2) was > 100 µM (inactive), the GI50 (SW-620) was > 100 µM (inactive) and the GI50 (HOP-62) was > 100 µM (inactive). The GI50 (NCI-H23) was > 100 µM (inactive), the GI50 (KM12) was > 100 µM (inactive) and the GI50 (RXF 393) was > 100 µM (inactive). The GI50 (ACHN) was > 100 µM (inactive), the GI50 (OVCAR-3) was > 100 µM (inactive) and the GI50 (HCT-116) was > 100 µM (inactive). The GI50 (A549) was > 100 µM (inactive), the GI50 (MOLT-4) was > 100 µM (inactive) and the GI50 (UACC-257) was > 100 µM (inactive). The GI50 (OVCAR-5) was > 100 µM (inactive), the GI50 (HOP-92) was > 100 µM (inactive) and the GI50 (SF-268) was > 100 µM (inactive). The GI50 (SF-539) was > 100 µM (inactive).
For CCOC(=O)c1cc(-c2cc(OC)c(OC)c([N+](=O)[O-])c2)c([N+](=O)[O-])n1C, the GI50 (SK-MEL-2) was > 10 µM (inactive), the GI50 (NCI-H23) was 6.37 µM (inactive) and the GI50 (KM12) was 4 µM (inactive). For the same compound, the GI50 (RXF 393) was 9.59 µM (inactive), the GI50 (ACHN) was 9.04 µM (inactive) and the GI50 (OVCAR-3) was 7.67 µM (inactive). The GI50 (HCT-116) was 5.33 µM (inactive), the GI50 (A549) was > 10 µM (inactive) and the GI50 (MOLT-4) was 3.5 µM (inactive). The GI50 (UACC-257) was 3.02 µM (inactive), the GI50 (OVCAR-5) was > 10 µM (inactive) and the GI50 (HOP-92) was > 10 µM (inactive). The GI50 (SF-268) was > 10 µM (inactive) and the GI50 (SF-539) was 8.32 µM (inactive).
For CC(=O)NC1=C(NCCC(C)C)C(=O)c2ccccc2C1=O, the GI50 (SK-MEL-2) was > 50 µM (inactive), the GI50 (SW-620) was > 50 µM (inactive) and the GI50 (HOP-62) was > 50 µM (inactive). For the same compound, the GI50 (NCI-H23) was > 50 µM (inactive), the GI50 (KM12) was > 50 µM (inactive) and the GI50 (RXF 393) was > 50 µM (inactive). The GI50 (ACHN) was 0.0301 µM (active), the GI50 (OVCAR-3) was > 50 µM (inactive) and the GI50 (HCT-116) was > 50 µM (inactive). For the same compound, the GI50 (A549) was > 50 µM (inactive), the GI50 (MOLT-4) was > 50 µM (inactive) and the GI50 (UACC-257) was > 50 µM (inactive). The GI50 (HOP-92) was > 50 µM (inactive), the GI50 (SF-268) was > 50 µM (inactive) and the GI50 (SF-539) was > 50 µM (inactive).
